Experimental data from PubChem BioAssay (NCI).
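Following 48 hours of exposure in 96-well plates, responses at five concentrations were used to interpolate endpoints linearly. TGI marks complete inhibition of growth.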 Where a SMILES comes first, the peptide text is derived from it. Bridges are numbered along the chain shown (N, C = ends). [ ]: non-standard residue; d: D form. The star is where a group is joined. ξ: configuration not given here. X26 = O=C(/C=C/C=C/C=C/C=C/C=C/C(=O)*)NC1=C(O)CCC1=O; Pro(4R-Me) = C[C@H]1CN[C@H](C(=O)O)C1; NMeA = CN[C@@H](C)C(=O)O; ξF = NC(Cc1ccccc1)C(=O)O; ξA = CC(N)C(=O)O

Key:
Experiment in all cases: NCI-60 cell line screen, 48 h
MALME-3M melanoma = test system: MALME-3M melanoma
HT29 colon = test system: HT29 colon
HCC-2998 colon = test system: HCC-2998 colon
UO-31 renal = test system: UO-31 renal
SK-MEL-28 melanoma = test system: SK-MEL-28 melanoma
SK-OV-3 ovarian = test system: SK-OV-3 ovarian
SF-539 CNS = test system: SF-539 CNS
A498 renal = test system: A498 renal
SK-MEL-2 melanoma = test system: SK-MEL-2 melanoma
HCT-116 colon = test system: HCT-116 colon
CCRF-CEM leukemia = test system: CCRF-CEM leukemia
IGROV1 ovarian = test system: IGROV1 ovarian
DU-145 prostate = test system: DU-145 prostate
COLO 205 colon = test system: COLO 205 colon
SW-620 colon = test system: SW-620 colon
HS 578T breast = test system: HS 578T breast
UACC-62 melanoma = test system: UACC-62 melanoma
HOP-62 NSCLC = test system: HOP-62 NSCLC
OVCAR-4 ovarian = test system: OVCAR-4 ovarian
LOX IMVI melanoma = test system: LOX IMVI melanoma
RXF 393 renal = test system: RXF 393 renal
UACC-257 melanoma = test system: UACC-257 melanoma
U251 CNS = test system: U251 CNS
A549 NSCLC = test system: A549 NSCLC
HCT-15 colon = test system: HCT-15 colon
SR leukemia = test system: SR leukemia
NCI-H460 lung = test system: NCI-H460 lung
RPMI-8226 leukemia = test system: RPMI-8226 leukemia
T-47D breast = test system: T-47D breast
NCI-H23 lung = test system: NCI-H23 lung
NCI/ADR-RES ovarian = test system: NCI/ADR-RES ovarian
SN12C renal = test system: SN12C renal
SF-295 CNS = test system: SF-295 CNS
CAKI-1 renal = test system: CAKI-1 renal
MDA-MB-231 breast = test system: MDA-MB-231 breast
OVCAR-3 ovarian = test system: OVCAR-3 ovarian
MDA-N = test system: MDA-N
OVCAR-5 ovarian = test system: OVCAR-5 ovarian
MDA-MB-435 = test system: MDA-MB-435
TK-10 renal = test system: TK-10 renal
786-0 renal = test system: 786-0 renal
KM12 colon = test system: KM12 colon
SF-268 CNS = test system: SF-268 CNS
M14 melanoma = test system: M14 melanoma
BT-549 breast = test system: BT-549 breast
PC-3 prostate = test system: PC-3 prostate
HL-60(TB) leukemia = test system: HL-60(TB) leukemia
SK-MEL-5 melanoma = test system: SK-MEL-5 melanoma
NCI-H522 lung = test system: NCI-H522 lung
K-562 leukemia = test system: K-562 leukemia
HOP-92 NSCLC = test system: HOP-92 NSCLC
EKVX NSCLC = test system: EKVX NSCLC
MCF7 breast = test system: MCF7 breast
SNB-19 CNS = test system: SNB-19 CNS
ACHN renal = test system: ACHN renal
SNB-75 CNS = test system: SNB-75 CNS
OVCAR-8 ovarian = test system: OVCAR-8 ovarian
NCI-H226 lung = test system: NCI-H226 lung
MOLT-4 leukemia = test system: MOLT-4 leukemia

For `CC1NC(=O)[C@H](C)N(C)C(=O)[C@@H]2CCCN2C(=O)[C@@H](NC(=O)C(Cc2ccccc2)NC(=O)/C=C/C=C/C=C/C=C/C=C/C(=O)NC2=C(O)CCC2=O)COC(=O)[C@@H]2C[C@@H](C)CN2C1=O` (stereo partly drawn) (X26-[ξF]SP[NMeA][ξA][Pro(4R-Me)]; ester 2-C), the TGI (MALME-3M melanoma) was > 100000 nM, the TGI (HT29 colon) was > 100000 nM and the TGI (HCC-2998 colon) was > 100000 nM. For the same compound, the TGI (UO-31 renal) was > 100000 nM, the TGI (SK-MEL-28 melanoma) was > 100000 nM and the TGI (SK-OV-3 ovarian) was > 100000 nM. The TGI (SF-539 CNS) was > 100000 nM, the TGI (A498 renal) was > 100000 nM and the TGI (SK-MEL-2 melanoma) was > 100000 nM. The TGI (HCT-116 colon) was > 100000 nM, the TGI (CCRF-CEM leukemia) was > 100000 nM and the TGI (IGROV1 ovarian) was > 100000 nM. The TGI (DU-145 prostate) was > 100000 nM, the TGI (COLO 205 colon) was > 100000 nM and the TGI (SW-620 colon) was > 100000 nM. The TGI (HS 578T breast) was > 100000 nM, the TGI (UACC-62 melanoma) was > 100000 nM and the TGI (HOP-62 NSCLC) was > 100000 nM. For the same compound, the TGI (OVCAR-4 ovarian) was > 100 µM, the TGI (LOX IMVI melanoma) was > 100000 nM and the TGI (RXF 393 renal) was > 100000 nM. The TGI (UACC-257 melanoma) was > 100000 nM, the TGI (U251 CNS) was > 100000 nM and the TGI (A549 NSCLC) was > 100000 nM. The TGI (HCT-15 colon) was > 100000 nM, the TGI (SR leukemia) was > 100000 nM and the TGI (NCI-H460 lung) was > 100000 nM. For the same compound, the TGI (RPMI-8226 leukemia) was > 100000 nM, the TGI (T-47D breast) was > 100 µM and the TGI (NCI-H23 lung) was > 100000 nM. For the same compound, the TGI (NCI/ADR-RES ovarian) was > 100000 nM, the TGI (SN12C renal) was > 100000 nM and the TGI (SF-295 CNS) was > 100000 nM. The TGI (CAKI-1 renal) was > 100000 nM, the TGI (MDA-MB-231 breast) was > 100000 nM and the TGI (OVCAR-3 ovarian) was > 100000 nM. For the same compound, the TGI (MDA-N) was > 100000 nM, the TGI (OVCAR-5 ovarian) was > 100 µM and the TGI (MDA-MB-435) was > 100000 nM. The TGI (TK-10 renal) was > 100000 nM, the TGI (786-0 renal) was > 100000 nM and the TGI (KM12 colon) was > 100000 nM. For the same compound, the TGI (SF-268 CNS) was > 100000 nM, the TGI (M14 melanoma) was > 100000 nM and the TGI (BT-549 breast) was > 100000 nM. For the same compound, the TGI (PC-3 prostate) was > 100000 nM, the TGI (HL-60(TB) leukemia) was > 100000 nM and the TGI (SK-MEL-5 melanoma) was > 100000 nM. The TGI (NCI-H522 lung) was > 100000 nM, the TGI (K-562 leukemia) was > 100000 nM and the TGI (HOP-92 NSCLC) was > 100000 nM. The TGI (EKVX NSCLC) was > 100000 nM, the TGI (MCF7 breast) was > 100000 nM and the TGI (SNB-19 CNS) was > 100000 nM. For the same compound, the TGI (ACHN renal) was > 100000 nM and the TGI (SNB-75 CNS) was > 100000 nM.
`CN(C)CCn1c(=O)c2ccc(NCCCN(C)CCCNc3ccc4c(=O)n(CCN(C)C)c(=O)n5c6ccccc6c(=O)c3c45)c3c(=O)c4ccccc4n(c1=O)c23` gave a TGI (MALME-3M melanoma) of 2330 nM, a TGI (HT29 colon) of 1060 nM and a TGI (HCC-2998 colon) of 224 nM. The TGI (UO-31 renal) was 530 nM, the TGI (SK-MEL-28 melanoma) was 1940 nM and the TGI (SK-OV-3 ovarian) was 2430 nM. It also gave a TGI (SF-539 CNS) of 1780 nM, a TGI (A498 renal) of 2130 nM and a TGI (SK-MEL-2 melanoma) of 2440 nM. For the same compound, the TGI (HCT-116 colon) was 1030 nM, the TGI (CCRF-CEM leukemia) was 81.9 nM and the TGI (IGROV1 ovarian) was 194 nM. It also gave a TGI (DU-145 prostate) of 533 nM, a TGI (COLO 205 colon) of 376 nM and a TGI (SW-620 colon) of 231 nM. The TGI (HS 578T breast) was 1760 nM, the TGI (UACC-62 melanoma) was 1580 nM and the TGI (HOP-62 NSCLC) was 838 nM. For the same compound, the TGI (LOX IMVI melanoma) was 164 nM, the TGI (RXF 393 renal) was 362 nM and the TGI (UACC-257 melanoma) was 1820 nM. It also gave a TGI (U251 CNS) of 1060 nM, a TGI (OVCAR-8 ovarian) of 490 nM and a TGI (A549 NSCLC) of 472 nM. The TGI (HCT-15 colon) was 421 nM, the TGI (SR leukemia) was 504 nM and the TGI (NCI-H226 lung) was 535 nM. It also gave a TGI (NCI-H460 lung) of 139 nM, a TGI (RPMI-8226 leukemia) of 231 nM and a TGI (T-47D breast) of 8.33 µM. It also gave a TGI (NCI-H23 lung) of 546 nM, a TGI (NCI/ADR-RES ovarian) of 1480 nM and a TGI (SN12C renal) of 1180 nM. The TGI (SF-295 CNS) was 1540 nM, the TGI (CAKI-1 renal) was 426 nM and the TGI (MDA-MB-231 breast) was 540 nM. The TGI (OVCAR-3 ovarian) was 1210 nM, the TGI (MDA-N) was 1600 nM and the TGI (OVCAR-5 ovarian) was 3.56 µM. It also gave a TGI (MDA-MB-435) of 127 nM, a TGI (TK-10 renal) of 1480 nM and a TGI (786-0 renal) of 1080 nM. For the same compound, the TGI (KM12 colon) was 590 nM, the TGI (SF-268 CNS) was 2110 nM and the TGI (M14 melanoma) was 1900 nM. The TGI (MOLT-4 leukemia) was 85.3 nM, the TGI (BT-549 breast) was 1750 nM and the TGI (PC-3 prostate) was 654 nM. It also gave a TGI (HL-60(TB) leukemia) of 1060 nM, a TGI (SK-MEL-5 melanoma) of 1170 nM and a TGI (NCI-H522 lung) of 517 nM. It also gave a TGI (K-562 leukemia) of 1300 nM, a TGI (HOP-92 NSCLC) of 735 nM and a TGI (EKVX NSCLC) of 1100 nM. For the same compound, the TGI (MCF7 breast) was 904 nM, the TGI (SNB-19 CNS) was 1330 nM and the TGI (ACHN renal) was 949 nM. For the same compound, the TGI (SNB-75 CNS) was 334 nM.
